Consider 15 compounds from patent publication US12252497B2, “Ras inhibitors” (Revolution Medicines, Inc., priority 2021, dated 2025).

The conditions of this series: ester bond, 18-membered ring.

Like-named read-outs stand apart in the source and are kept apart here.

Regarding `CCn1c(-c2cc(N3CCN4CCOC[C@@H]4C3)cnc2[C@H](C)OC)c2c3cc(ccc31)N1CCO[C@@H](C[C@H](NC(=O)OC(C)(C)C)C(=O)N3CCC[C@H](N3)C(=O)OCC(C)(C)C2)C1`, the ring closure, isolated yield (from CCn1c(-c2cc(N3CCN4CCOC[C@@H]4C3)cnc2[C@H](C)OC)c(CC(C)(C)CO)c2cc(N3CCO[C@@H](C[C@H](NC(=O)OC(C)(C)C)C(=O)N4CCC[C@@H](C(=O)O)N4)C3)ccc21, EDCI/HOBt/NMM, DCM, 11.2 mM, 25.0 °C) was 51%.

In turn, `CO[C@@H](C)c1ncc(N2CCN(C3CC3)CC2)cc1-c1c2c3cc(ccc3n1CC(F)(F)F)N1CCO[C@@H](C[C@H](NC(=O)OC(C)(C)C)C(=O)N3CCC[C@H](N3)C(=O)OCC(C)(C)C2)C1` displayed a ring closure, isolated yield (from CO[C@@H](C)c1ncc(N2CCN(C3CC3)CC2)cc1-c1c(CC(C)(C)CO)c2cc(N3CCO[C@@H](C[C@H](NC(=O)OC(C)(C)C)C(=O)N4CCC[C@@H](C(=O)O)N4)C3)ccc2n1CC(F)(F)F, EDCI/HOBt/DIEA, DCM, 9.22 mM, 25.0 °C) of 64%.

In the case of `CCn1c(-c2cc(N3CCN4CCCC[C@@H]4C3)cnc2[C@H](C)OC)c2c3cc(ccc31)-c1csc(n1)C[C@H](NC(=O)OC(C)(C)C)C(=O)N1CCC[C@H](N1)C(=O)OCC(C)(C)C2`, for the setting “from CCn1c(-c2cc(N3CCN4CCCC[C@@H]4C3)cnc2[C@H](C)OC)c(CC(C)(C)CO)c2cc(-c3csc(C[C@H](NC(=O)OC(C)(C)C)C(=O)N4CCC[C@@H](C(=O)O)N4)n3)ccc21, EDCI/HOBt/DIPEA, DCM, 11.3 mM, 25.0 °C”, the ring closure, isolated yield is 49%.

Under “from CCn1c(-c2cc(N3CCN4CCC[C@@H]4C3)cnc2[C@H](C)OC)c(CC(C)(C)CO)c2cc(-c3cc(C[C@H](NC(=O)OC(C)(C)C)C(=O)N4CCC[C@@H](C(=O)O)N4)cc(C(F)F)c3)ccc21, EDCI/HOBt/DIEA, DCM, 10.1 mM, 25.0 °C”, `CCn1c(-c2cc(N3CCN4CCC[C@@H]4C3)cnc2[C@H](C)OC)c2c3cc(ccc31)-c1cc(cc(C(F)F)c1)C[C@H](NC(=O)OC(C)(C)C)C(=O)N1CCC[C@H](N1)C(=O)OCC(C)(C)C2` showed a ring closure, isolated yield of 78%.

As for `CCn1c(-c2cc(N3CCN4CCC[C@@H]4C3)cnc2[C@H](C)OC)c2c3cc(ccc31)-c1csc(n1)C[C@H](NC(=O)OC(C)(C)C)C(=O)N1CCC[C@H](N1)C(=O)OCC(C)(C)C2`, the ring closure, isolated yield (from CCn1c(-c2cc(N3CCN4CCC[C@@H]4C3)cnc2[C@H](C)OC)c(CC(C)(C)CO)c2cc(-c3csc(C[C@H](NC(=O)OC(C)(C)C)C(=O)N4CCC[C@@H](C(=O)O)N4)n3)ccc21, EDCI/HOBt/DIEA, DCM, 111.6 mM, 25.0 °C, 16.0 h) stood at 37%.

`CCn1c(-c2cc(N3CCN(C4CC4)CC3)cnc2[C@H](C)OC)c2c3cc(ccc31)N1CCO[C@@H](C[C@H](NC(=O)OCc3ccccc3)C(=O)N3CCC[C@H](N3)C(=O)OCC(C)(C)C2)C1` came in with a ring closure, isolated yield (from CCn1c(-c2cc(N3CCN(C4CC4)CC3)cnc2[C@H](C)OC)c(CC(C)(C)CO)c2cc(N3CCO[C@@H](C[C@H](NC(=O)OCc4ccccc4)C(=O)N4CCC[C@@H](C(=O)O)N4)C3)ccc21, EDCI/HOBt/DIEA, DCM, 11.3 mM, 30.0 °C) of 50%.

For the setting “from CCn1c(-c2cc(N3CCN4CCOC[C@@H]4C3)cnc2[C@H](C)OC)c(CC(C)(C)CO)c2cc(-c3cc(CF)cc(C[C@H](NC(=O)OC(C)(C)C)C(=O)N4CCC[C@@H](C(=O)O)N4)c3)ccc21, EDCI/HOBt/DIEA, DCM, 11.3 mM, 0.0 °C”, `CCn1c(-c2cc(N3CCN4CCOC[C@@H]4C3)cnc2[C@H](C)OC)c2c3cc(ccc31)-c1cc(CF)cc(c1)C[C@H](NC(=O)OC(C)(C)C)C(=O)N1CCC[C@H](N1)C(=O)OCC(C)(C)C2` had a ring closure, isolated yield of 69%.

On to `CCn1c(-c2cc(N3CCN(C4CC4)CC3)cnc2[C@H](C)OC)c2c3cc(ccc31)-c1cccc(c1)C[C@H](NC(=O)OC(C)(C)C)C(=O)N1CCC[C@H](N1)C(=O)OCC(C)(C)C2`, for which the ring closure, isolated yield (from CCn1c(-c2cc(N3CCN(C4CC4)CC3)cnc2[C@H](C)OC)c(CC(C)(C)CO)c2cc(-c3cccc(C[C@H](NC(=O)OC(C)(C)C)C(=O)N4CCC[C@@H](C(=O)O)N4)c3)ccc21, EDCI/HOBt/DIEA, DCM, 14.4 mM, 25.0 °C) worked out at 64%.

For the setting “from CO[C@@H](C)c1ncc(N2CCN3CCCC[C@@H]3C2)cc1-c1c(CC(C)(C)CO)c2cc(-c3cccc(C[C@H](NC(=O)OC(C)(C)C)C(=O)N4CCC[C@@H](C(=O)O)N4)c3)ccc2n1CC(F)(F)F, EDCI.HCl/HOBt/DIPEA, DCM, 12.9 mM, 0.0 °C”, `CO[C@@H](C)c1ncc(N2CCN3CCCC[C@@H]3C2)cc1-c1c2c3cc(ccc3n1CC(F)(F)F)-c1cccc(c1)C[C@H](NC(=O)OC(C)(C)C)C(=O)N1CCC[C@H](N1)C(=O)OCC(C)(C)C2` displayed a ring closure, isolated yield of 65%.

Where the note is “from CCn1c(-c2cc(N3CCN4CCOC[C@@H]4C3)cnc2[C@H](C)OC)c(CC(C)(C)CO)c2cc(-c3cc(C[C@H](NC(=O)OC(C)(C)C)C(=O)N4CCC[C@@H](C(=O)O)N4)cc(C(F)F)c3)ccc21, EDCI/HOBt/DIEA, DCM, 10.7 mM, 25.0 °C”, `CCn1c(-c2cc(N3CCN4CCOC[C@@H]4C3)cnc2[C@H](C)OC)c2c3cc(ccc31)-c1cc(cc(C(F)F)c1)C[C@H](NC(=O)OC(C)(C)C)C(=O)N1CCC[C@H](N1)C(=O)OCC(C)(C)C2` showed a ring closure, isolated yield of 42%.

The compound `CCn1c(-c2cc(N3CCN4CCCC[C@@H]4C3)cnc2[C@H](C)OC)c2c3cc(ccc31)-c1cc(cc(C(F)F)c1)C[C@H](NC(=O)OC(C)(C)C)C(=O)N1CCC[C@H](N1)C(=O)OCC(C)(C)C2` registered a ring closure, isolated yield (from CCn1c(-c2cc(N3CCN4CCCC[C@@H]4C3)cnc2[C@H](C)OC)c(CC(C)(C)CO)c2cc(-c3cc(C[C@H](NC(=O)OC(C)(C)C)C(=O)N4CCC[C@@H](C(=O)O)N4)cc(C(F)F)c3)ccc21, EDCI/HOBt/DIEA, DCM, 5.27 mM, 25.0 °C) of 90%.

`CO[C@@H](C)c1ncc(N2CCN(C3CC3)CC2)cc1-c1c2c3cc(ccc3n1CC(F)(F)F)C1=CCCN(C1)C[C@H](NC(=O)OC(C)(C)C)C(=O)N1CCC[C@H](N1)C(=O)OCC(C)(C)C2` yielded a ring closure, isolated yield (from CO[C@@H](C)c1ncc(N2CCN(C3CC3)CC2)cc1-c1c(CC(C)(C)CO)c2cc(C3=CCCN(C[C@H](NC(=O)OC(C)(C)C)C(=O)N4CCC[C@@H](C(=O)O)N4)C3)ccc2n1CC(F)(F)F, EDCI/HOBt/DIEA, DCM, 10.8 mM, 25.0 °C) of 73%.

The compound `CO[C@@H](C)c1ncc(N2CCN3CCOC[C@@H]3C2)cc1-c1c2c3cc(ccc3n1CC(F)(F)F)-c1csc(n1)C[C@H](NC(=O)OC(C)(C)C)C(=O)N1CCC[C@H](N1)C(=O)OCC(C)(C)C2` had a ring closure, isolated yield (from CO[C@@H](C)c1ncc(N2CCN3CCOC[C@@H]3C2)cc1-c1c(CC(C)(C)CO)c2cc(-c3csc(C[C@H](NC(=O)OC(C)(C)C)C(=O)N4CCC[C@@H](C(=O)O)N4)n3)ccc2n1CC(F)(F)F, EDCI/HOBt/DIEA, DCM, 10.6 mM, 25.0 °C) of 64%.

In the case of `CCn1c(-c2cc(N3CCN(C(=O)OCc4ccccc4)CC3)cnc2[C@H](C)OC)c2c3cc(ccc31)-c1csc(n1)C[C@H](NC(=O)OC(C)(C)C)C(=O)N1CCC[C@H](N1)C(=O)OCC(C)(C)C2`, the ring closure, isolated yield (from CCn1c(-c2cc(N3CCN(C(=O)OCc4ccccc4)CC3)cnc2[C@H](C)OC)c(CC(C)(C)CO)c2cc(-c3csc(C[C@H](NC(=O)OC(C)(C)C)C(=O)N4CCC[C@@H](C(=O)O)N4)n3)ccc21, EDCI/HOBt/DIPEA, MeCN, 10.3 mM, 25.0 °C) came to 55%.

For the setting “from CCn1c(-c2cc(N3CCN4CCCC[C@@H]4C3)cnc2[C@H](C)OC)c(CC(C)(C)CO)c2cc(N3CCO[C@@H](C[C@H](NC(=O)OC(C)(C)C)C(=O)N4CCC[C@@H](C(=O)O)N4)C3)ccc21, EDCI/HOBt/DIPEA, DMF, 11.2 mM, 25.0 °C”, `CCn1c(-c2cc(N3CCN4CCCC[C@@H]4C3)cnc2[C@H](C)OC)c2c3cc(ccc31)N1CCO[C@@H](C[C@H](NC(=O)OC(C)(C)C)C(=O)N3CCC[C@H](N3)C(=O)OCC(C)(C)C2)C1` displayed a ring closure, isolated yield of 73%.
